Measurements taken from patent publication US7157570B2, “Human ribonucleotide reductase M2 subunit” (priority 2002, dated 2007).

Legend:
DNA of KB cells = settings: any HU treatment schedule (control)
KB cells [1] = assay: colony-forming assay; assay type: cell-based, human; settings: drug alone (0.1 mM HU or 0.3 μM Gem)
KBHURs clone = settings: cited from earlier work
RR activity in KB cells = target: T1, RR activity in KB cells (Homo sapiens, UniProt P31350); assay: in vivo RR activity assay (permeabilized cells); assay type: cell-based; settings: 0.1 mM HU
T1 construct: endogenous in cells; host or cells: KB cells (human oropharyngeal carcinoma), permeabilized with lysolecithin
T1 sequence (P31350 1-389): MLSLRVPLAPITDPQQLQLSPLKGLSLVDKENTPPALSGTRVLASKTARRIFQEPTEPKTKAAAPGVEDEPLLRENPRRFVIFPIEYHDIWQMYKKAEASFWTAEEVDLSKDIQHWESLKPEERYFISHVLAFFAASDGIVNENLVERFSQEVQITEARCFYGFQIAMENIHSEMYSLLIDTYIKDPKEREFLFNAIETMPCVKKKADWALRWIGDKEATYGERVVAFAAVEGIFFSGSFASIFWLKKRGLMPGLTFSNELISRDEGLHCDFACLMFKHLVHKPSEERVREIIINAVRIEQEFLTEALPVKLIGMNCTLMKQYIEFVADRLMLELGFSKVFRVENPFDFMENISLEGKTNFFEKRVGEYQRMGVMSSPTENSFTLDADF
Experimental: […] cells were plated in duplicate in 60-mm dishes. Cells were treated with 0.1 mM HU and harvested at the indicated time points. To permeabilize the cells, they were washed twice in Solution A (150 mM sucrose, 80 mM KCL, 35 mM HEPES, pH 7.4, 5 mM potassium phosphate, pH 7.4, 5 mM MgCl2, 0.5 mM CaCl2), resuspended in 500 μl of cold Solution A containing 0.25 mg/ml lysolecithin, and incubated for 1 minute at 4° C. To measure the activity of ribonucleoside diphosphate reduction and DNA synthesis, 1×10^6 permeabilized cells were incubated at 37° C. for 10 minutes in 300 μl of 50 mM HEPES, pH 7.4, 10 mM MgCl2, 8 mM dithiothreitol, 0.06 mM FeCl3, 7.5 mM potassium phosphate, pH 7.4, 0.75 mM CaCl2, 10 mM phosphoenolpyruvate, 0.2 mM ^3H-rCDP, 0.2 mM rGDP, 0.2 mM rADP, 0.2 mM dTDP. Following incubation, 150 μl of the suspension mixture was taken out, resulting in two samples, and mixed with 30 μl of 60% perchloric acid/0.1% sodium pyrophosphate. After a 15-minute incubation on ice, 1 ml ddH2O was added to dilute the mixture and then it was centrifuged to precipitate any acid-insoluble material. Pellets were extracted with 0.1 ml 0.2 N NaOH and incubated at 37° C. for 30 minutes.
An in vivo RR activity assay was performed at the same time points as above described. […] The results are consistent with the observed levels of hRRM2 mRNA and protein expression.

KB cells [2] = assay: cell cycle analysis by flow cytometry; assay type: cell-based, human; settings: 4 to 8 hours of exposure to HU
Experimental: The cell cycle analysis was performed at flowcytometry core facility of City of Hope National Medical Center. The percent of cells in each phase of the cell cycle was analyzed by ModFit software. The protocol was summarized as below. Cells were trypsinized, washed twice with PBS, and resuspended in 1 ml PBS. 7 ml 0.5 M citric acid buffer (pH 2.35) was added and samples were stored overnight at room temperature in the dark. On the second day, the cells were placed at 4° C. in a dark environment. On the third day, cells were spun down, resuspended in citric acid buffer (pH 4.5) and adjusted to a concentration of 1×10^6 cells/ml. On the following day, the cells were spun down and resuspended in 1 ml BSA-H (0.1% BSA in PBS buffer). 150 μg RNase A (DNase free) was added to the solution and cells were incubated at 37° C. for 30 minutes. The cells were washed once with BSA-H and the pellet was resuspended in 1 ml 100 μg/ml propidium iodine (PI) and stored overnight at room temperature in the dark. On the following day, cells were analyzed by flowcytometry (Gao et al. (1998) Biochem Pharmaco 56, 105–112).
To further examine the time- and sequence-dependent interaction between HU and Gem, the effect of HU on cell cycle was studied. […] As Gem function requires DNA synthesis, the increased percent of cells in S-phase after 4 to 8 hours after exposure to HU is likely to augment its function.

[3] = test system: intracellular dNTP pools in KB cells; assay: dNTP pool assay; assay type: cell-based, human
Experimental: After treatment at designated time points with HU and/or Gem, cells were trypsinized, washed with PBS and viable cells were counted by Trypan Blue dye exclusion. Cells were transferred to 1.5 ml Eppendorf tubes and pelleted by brief centrifugation. Cell pellets were mixed with 100 μl 15% trichloroacetic acid and kept on ice for 10 minutes. It was then centrifuged for 5 minutes and the supernatant collected. dNTPs were extracted with two 50 μl aliquots of freon/trioctylamine (55%:45%). After each centrifugation, the supernatant was saved. 5 μl aliquots of each sample were used to check dATP, dCTP, dGTP, and dTTP concentrations. Each measurement was performed in duplicate (Zhou et al. (1998) Biochem Pharmaco 55, 1657–1665).
The reaction mixture contained 50 mM Tris-HCl (pH 7.5), 10 mM MgCl2, 5 mM DTT, 0.25 μM template/primer, 1.25 μM ^3H-dATP (for dCTP, dGTP, and dTTP assays) or ^3H-dTTP (for dATP assay), and 0.2 units of Sequenase (2.0) in a total volume of 50 μl. DNA synthesis was allowed to proceed for twenty minutes at room temperature and then the reaction was stopped and 40 μl of the reaction mixture was spotted onto Whatman DE81 ion exchange paper (2.4 cm diameter). The paper was dried, washed with 5% Na2HPO4 (3×10 min.), and rinsed once with distilled water and once with 95% ethanol. Samples were counted in a liquid scintillation counter and compared to standard samples prepared in the presence of 0.25, 0.5, and 1.0 pmol/μl of each dNTP.
To evaluate the effect of HU on dNTP pools in KB cells, each dNTP pool was measured as described in the Materials and Methods. dATP and dCTP were the most susceptible of the four dNTP pools to inhibition by HU. A decrease in these intracellular pools commenced after 1 hour of exposure to HU. The decline continued, with the dCTP pool reaching a nadir of approximately 15% of the control at 4 hours. The dATP pool reached a nadir after 8 hours. In a second phase, between 8 and 24 hours after exposure to HU, the dATP and dCTP pools slowly recovered to about 80% of their starting level. […] The decline and recovery of the dCTP and dATP pools paralleled the results of the colony-forming study. The initial drop in hRRM2 mRNA and protein, observed after 2–4 hours of HU exposure, could contribute to the rapid decline in dCTP and dATP pools seen after 4 hrs, while the subsequent overexpression of hRRM2 mRNA and protein would provide the needed activity to allow gradual recovery of the levels of dCTP and dATP.

hRRM2 mRNA in KB cells = assay: Northern blot of hRRM2 mRNA after exposure to HU; assay type: cell-based, human; settings: 0.1 mM HU
[4] = test system: hRRM2 protein in KB cells; assay: Western blot of hRRM2 protein after exposure to HU; assay type: cell-based, human; settings: 0.1 mM HU, 4-hour point
human RR = target: T2, human RR (Homo sapiens, UniProt P23921); assay: inhibition of human RR activity by C-terminal RRM2 peptide added to the enzyme in vitro; assay type: biochemical
T2 sequence (P23921 1-792): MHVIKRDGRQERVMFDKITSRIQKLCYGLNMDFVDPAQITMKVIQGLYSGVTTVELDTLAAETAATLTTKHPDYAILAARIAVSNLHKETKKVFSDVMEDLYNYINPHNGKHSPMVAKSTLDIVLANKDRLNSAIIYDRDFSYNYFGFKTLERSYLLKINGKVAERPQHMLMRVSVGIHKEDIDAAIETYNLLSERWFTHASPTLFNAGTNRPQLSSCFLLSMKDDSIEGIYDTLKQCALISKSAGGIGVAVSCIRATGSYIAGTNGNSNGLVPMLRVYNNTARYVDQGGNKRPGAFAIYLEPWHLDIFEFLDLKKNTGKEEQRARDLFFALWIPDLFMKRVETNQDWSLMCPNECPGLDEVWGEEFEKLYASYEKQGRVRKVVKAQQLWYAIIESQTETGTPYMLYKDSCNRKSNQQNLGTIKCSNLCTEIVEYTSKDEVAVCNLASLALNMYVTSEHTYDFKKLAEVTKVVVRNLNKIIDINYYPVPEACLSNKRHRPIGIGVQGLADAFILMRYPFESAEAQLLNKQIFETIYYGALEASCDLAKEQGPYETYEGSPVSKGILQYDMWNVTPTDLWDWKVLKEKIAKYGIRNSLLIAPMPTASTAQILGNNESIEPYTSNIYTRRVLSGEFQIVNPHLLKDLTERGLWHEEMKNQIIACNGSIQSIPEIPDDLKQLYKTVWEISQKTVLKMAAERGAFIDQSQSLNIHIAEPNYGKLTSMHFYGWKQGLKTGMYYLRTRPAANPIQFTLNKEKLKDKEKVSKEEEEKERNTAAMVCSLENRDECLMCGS
Description: Other compounds that can be used to inhibit RRM1 and RRM2 or RRM1 and p53R2 interaction include a peptide or polypeptide containing an amino acid sequence at the C-terminus of RRM2. […] It was further observed that a truncated form of the M2 subunit, lacking these 7 amino acids at the C-terminus, fails to form a complex with the corresponding large subunit M1. […] Thus, methods of treating a cell proliferation-associated disorder using the peptide of SEQ ID NO:5 or its functional equivalents are within the scope of the invention. Peptides or polypeptides that are functionally equivalent to SEQ ID NO:5 can be either longer or shorter than SEQ ID NO:5, or contain substitute amino acids within SEQ ID NO:5, as long as they are capable of inhibiting the interaction between RRM1 and RRM2 or RRM1 and p53R2. Such peptides or polypeptides can be generated and used according to the methods described above or any other methods well known in the art.

[5] = target: T3, ribonucleotide reductase M1 subunit (RRM1) (human, UniProt P23921 1-792, limits assumed); assay: complex formation assay (method not described)
T3 construct: For the truncation experiment it says only 'the corresponding large subunit M1'; The construct is not described; also called large subunit M1
T3 sequence (looked up): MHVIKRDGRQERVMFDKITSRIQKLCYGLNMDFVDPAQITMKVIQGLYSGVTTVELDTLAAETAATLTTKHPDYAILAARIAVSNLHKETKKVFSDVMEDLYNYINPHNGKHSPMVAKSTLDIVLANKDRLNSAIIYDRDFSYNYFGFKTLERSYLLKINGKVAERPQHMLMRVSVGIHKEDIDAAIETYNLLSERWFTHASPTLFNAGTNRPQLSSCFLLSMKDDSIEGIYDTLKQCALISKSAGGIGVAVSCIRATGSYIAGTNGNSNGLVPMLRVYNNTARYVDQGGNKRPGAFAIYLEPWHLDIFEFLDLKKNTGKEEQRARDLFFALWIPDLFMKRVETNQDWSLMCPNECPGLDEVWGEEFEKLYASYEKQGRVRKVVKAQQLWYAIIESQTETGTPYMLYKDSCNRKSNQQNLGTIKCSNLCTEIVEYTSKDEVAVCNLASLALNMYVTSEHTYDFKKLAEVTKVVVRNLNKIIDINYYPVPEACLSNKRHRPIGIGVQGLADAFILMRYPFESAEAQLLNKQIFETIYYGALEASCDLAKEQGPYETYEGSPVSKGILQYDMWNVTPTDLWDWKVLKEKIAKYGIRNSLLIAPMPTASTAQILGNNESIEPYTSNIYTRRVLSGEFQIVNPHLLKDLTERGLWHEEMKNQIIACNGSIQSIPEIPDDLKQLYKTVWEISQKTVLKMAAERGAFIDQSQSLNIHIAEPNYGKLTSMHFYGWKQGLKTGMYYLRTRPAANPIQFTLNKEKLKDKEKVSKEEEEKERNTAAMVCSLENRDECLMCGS

## NC(=O)NO [HU, hydroxyurea]
DNA of KB cells
  incorporation of 3H-labeled CDP into DNA: did not vary significantly
KB cells [1]
  colony formation, % of untreated controls: approximately 50%
KBHURs clone
  increase in resistance to HU over KBwt cells: 15 fold
RR activity in KB cells; 8-hour point
  RR activity: recovered to the level of the control
RR activity in KB cells; 4 hours
  RR activity, % of the control: 60%
KB cells [2]
  percentage of cells in G1: remained stable
  percentage of cells in G2/M: declined
  percentage of cells in S-phase: approximately doubled
[3]; HU exposure
  dTTP and dGTP pools over time: did not vary significantly
  time at which dATP pool reached a nadir: 8 h
[3]; HU, 4 hours
  dCTP pool nadir, % of the control: approximately 15%
[3]; between 8 and 24 hours after exposure to HU
  dATP and dCTP pools, % of starting level after recovery: about 80%
hRRM2 mRNA in KB cells; 2 hours
  decrease of hRRM2 mRNA relative to untreated sample: 20%
hRRM2 mRNA in KB cells; 4 hours
  hRRM2 mRNA, % of control levels: 60%
[4]
  hRRM2 protein expression: decrease

## FTLDADF (synthetically generated peptide)
Human RR; added to the enzyme in vitro at ratio 10:1 (peptide:enzyme)
  suppression of human RR activity: dramatically suppress
Human RR; in vitro
  inhibition of RR activity compared with RR inhibitors hydroxyurea and triapine: superior

B1: truncated form of the M2 subunit, lacking the 7 amino acids at the C-terminus (enzyme, human, UniProt P31350 1-382, looked up)
chain: MLSLRVPLAPITDPQQLQLSPLKGLSLVDKENTPPALSGTRVLASKTARRIFQEPTEPKTKAAAPGVEDEPLLRENPRRFVIFPIEYHDIWQMYKKAEASFWTAEEVDLSKDIQHWESLKPEERYFISHVLAFFAASDGIVNENLVERFSQEVQITEARCFYGFQIAMENIHSEMYSLLIDTYIKDPKEREFLFNAIETMPCVKKKADWALRWIGDKEATYGERVVAFAAVEGIFFSGSFASIFWLKKRGLMPGLTFSNELISRDEGLHCDFACLMFKHLVHKPSEERVREIIINAVRIEQEFLTEALPVKLIGMNCTLMKQYIEFVADRLMLELGFSKVFRVENPFDFMENISLEGKTNFFEKRVGEYQRMGVMSSPTENS
notes: domain: truncated form lacking the 7 amino acids at the C-terminus; To build it, delete the last 7 residues (FTLDADF) of RRM2; also called truncated M2
[5]
  binding result: no binding
